Results published in patent US20140018432A1, “ELECTROCHEMICAL GENERATION OF CHLORINATED UREA DERIVATIVES” (Hercules Incorporated, priority 2012, published 2014).

Key:
microorganisms = experiment: Microbiological studies (biocidal activity); conditions: no details given
[1] = Stability of aqueous solutions of the chlorinated ureas; assay type: physicochemical

Structure (SMILES) | biocidal activity (microorganisms) | stability compared with N-chlorourea [1] | stability of solution ([1]; basic solutions (pH 12 and higher, flow cell without membrane)) | stability of solution ([1]; neutral or acidic environment)
NC(=O)NCl [N-chlorourea] | potent biocides | – | – | –
CNC(=O)N(C)Cl [N-chloro-N,N′-dimethylurea] | potent biocides | significantly more stable than N-chlorourea | not stable | significantly more stable
